The test system of data set [1] is CUS-exposed mice. The data set can be described thus: Sucrose preference test. Type of data set: in vivo. How it is done:
(§1) Subjects were exposed to chronic unpredictable stress (CUS), consisting of daily exposure to two stressors in a random order over a 5-week period. The effect of a shorter period of unpredictable stress was examined by exposing mice to various combinations of 2-3 of the same stressors over a period of 2 days. The list of CUS stressors included: cage shaking for 1 h with loud music and lights, on, lights on during the entire night (12 h), lights-off for 3 h during the daylight phase, flashing (stroboscopic) light for 6 h, placement in 4° C. cold room for 1 h, mild restraint (in small cages) for 2 h, 45° cage tilt for 14 h, wet cage for 14 h, exposure to fox, ferret, bobcat, or coyote smell for 2 h, noise in the room for 3 h, and water deprivation for 12 h during the dark period. Following baseline adaptation to sucrose for several days, animals were presented in the beginning of the dark circadian phase with two graduated drinking tubes, one containing tap water and the other 2% sucrose solution for 3 hr. Sucrose preference was calculated as the percent of sucrose consumption out of the total drinking volume.

Data set [2] has as its system CUS-exposed mice. Briefly: Social exploration test. Type of data set: in vivo. The settings on record: for social exploration time: 5-weeks CUS-exposed mice treated for 2 additional weeks of CUS. Here is the method:
Subjects were exposed to chronic unpredictable stress (CUS), consisting of daily exposure to two stressors in a random order over a 5-week period. The effect of a shorter period of unpredictable stress was examined by exposing mice to various combinations of 2-3 of the same stressors over a period of 2 days. The list of CUS stressors included: cage shaking for 1 h with loud music and lights, on, lights on during the entire night (12 h), lights-off for 3 h during the daylight phase, flashing (stroboscopic) light for 6 h, placement in 4° C. cold room for 1 h, mild restraint (in small cages) for 2 h, 45° cage tilt for 14 h, wet cage for 14 h, exposure to fox, ferret, bobcat, or coyote smell for 2 h, noise in the room for 3 h, and water deprivation for 12 h during the dark period. Each subject was placed in an observation cage and allowed to habituate to the cage for 15 min, following which a male juvenile was placed in the cage. Social exploration, defined as the time of near contact between the nose of the subject and the juvenile conspecific, was then recorded for three minutes, using computerized in-house software.

Data set [3] has as its system CUS-exposed mice. Briefly: Porsolt forced swim test. Type of data set: in vivo.
Protocol: Subjects were exposed to chronic unpredictable stress (CUS), consisting of daily exposure to two stressors in a random order over a 5-week period. […] The list of CUS stressors included: cage shaking for 1 h with loud music and lights, on, lights on during the entire night (12 h), lights-off for 3 h during the daylight phase, flashing (stroboscopic) light for 6 h, placement in 4° C. cold room for 1 h, mild restraint (in small cages) for 2 h, 45° cage tilt for 14 h, wet cage for 14 h, exposure to fox, ferret, bobcat, or coyote smell for 2 h, noise in the room for 3 h, and water deprivation for 12 h during the dark period.
Mice were placed in 20 cm diameter glass cylinder filled to 10 cm with 21° C. water and their behavior was analyzed for five min. The time spent in immobility, defined as the absence of all movement except motions required to maintain the animal's head above the water, and the latency to first immobility episode were recorded using an in-house computerized software.
Data set [4] concerns CUS-exposed mice. Briefly: CUS model, overall depressive-like behavior. Type of data set: in vivo. Here is the method: as §1, with “period.” for “period. Following baseline adaptation to sucrose for several days, animals were presented in the beginning of the dark circadian phase with two graduated drinking tubes, one containing tap water and the other 2% sucrose solution for 3 hr. Sucrose preference was calculated as the percent of sucrose consumption out of the total drinking volume.”

The next data set relates to DG microglia. The data set can be described thus: DG microglia number and morphology after unpredictable stress (US/CUS). Type of data set: in vivo, mice. Here is the method:
as §1, with “period.” for “period. Following baseline adaptation to sucrose for several days, animals were presented in the beginning of the dark circadian phase with two graduated drinking tubes, one containing tap water and the other 2% sucrose solution for 3 hr. Sucrose preference was calculated as the percent of sucrose consumption out of the total drinking volume.”
Animals were perfused trans-cardially with cold PBS followed by 4% paraformaldehyde in 0.1 M PBS, and the brains were quickly removed and placed in 4% paraformaldehyde. After 24 h the brains were placed in 30% sucrose solution in PBS and then frozen in OCT.
In some experiments microglia were visualized using an antibody to the microglia activation marker ionized calcium-binding adapter molecule-1 (Iba-1). Brain sections were first fixed in 2% paraformaldehyde, and after 3 PBS washes they were incubated over-night in 3% normal goat serum in 5% BSA with the primary antibody (rabbit anti Iba-1 1:220, Wako, Japan) at 4° C. Sections were then incubated with the secondary antibody (goat anti rabbit, 1:200; Invitrogen) for 1 hour at RT and counter-stained with DAPI (Sigma, Israel).
(§2) Images were captured using Nikon Eclipse fluorescent microscope and CI Nikon confocal microscope and camera. The number of GFP-labeled microglia (and in some studies the number of BrdU-labeled microglia and other cells), as well and the microglial soma area were automatically measured at ×10 magnification in a defined area exclusively containing the entire Dentate Gyrus or prelimbic cortex, for each slide, using Nikon Imaging Elements Software (NIS-Elements). Microglia processes length was measured by capturing images at 40× magnification and by manual tracing of the processes of 4 randomly selected cells/section their processes using the NIS Elements software.

In a further data set the test system is DG cells. Briefly: BrdU labeling of DG cells (neurogenesis / proliferation). Type of data set: in vivo, mice. The settings on record: M-CSF 100 μg/kg i.p. daily for 5 days. How it is done: BrdU immunofluorescent staining was performed on 8 μm frozen brain sections, fixated in 50% formamide/2×SCC (0.3M NaCl and 0.03 M sodium citrate) for 2 hours at 65° C. After one wash with 2×SCC, sections were incubated in 2 N HCl for 30 minutes at 37° C. Sections were then rinsed in 0.1 M boric acid at pH 8.5 and washed 3 times in PBS, following which they were incubated in 3% normal goat serum in 1% BSA/0.1% Triton for 30 min at room temperature and then incubated with rat monoclonal anti-BrdU antibody (1:200, AbD serotec) for 48 hours at 4° C. […]
as §2

Setting [5] is: 5-weeks CUS, drug beginning two days before and throughout CUS.
The mark [6] stands for this setting: 5-weeks CUS-exposed mice treated for 2 additional weeks of CUS.
Where [7] appears, read: 5-weeks CUS-exposed mice treated for 2 additional weeks of CUS (imipramine, minocycline in drinking water; GM-CSF i.p. 3 time/week).
The mark [8] stands for this setting: CUS-exposed mice, M-CSF 100 μg/kg i.p. daily for 5 days.

Turning to `CN(C)CCCN1c2ccccc2CCc2ccccc21` [imipramine, reference compound], the sucrose preference result in the data set with CUS-exposed mice [1] (setting [5]) is on record as “prevented the CUS-induced reductions in sucrose preference”. Also, the social exploration time entry in the data set on CUS-exposed mice [2] is given as “further reductions were evident”. In the data set on CUS-exposed mice [2] (setting [5]), the social exploration entry was “prevented the CUS-induced reductions”. Moreover, the floating time entry with CUS-exposed mice [3] (setting [6]) is on record as “showed no difference from non-stressed controls”. Also, the “effect on established CUS-induced depressive-like behavior” value with CUS-exposed mice [4] (administration to mice with established CUS-induced depressive-like behavior) was “produced minimal beneficial effects”. In the data set on DG microglia (setting [7]), the DG microglia number result was “no differences from any of the groups”. In the data set on DG microglia (setting [5]), the hippocampal microglia number result was “blocked the CUS-induced decline in hippocampal microglia number”, the microglia processes length entry is reported as “blocked the CUS-induced decline” and the microglia soma size entry is recorded as “blocked the CUS-induced decline”. Also, the “number of hippocampal (DG) microglia” value with DG microglia (2 days of US exposure, drug via drinking water beginning 2 days before US initiation (minocycline 40, imipramine 20 mg/kg/day)) is listed as “completely reversed the increase in hippocampal microglia”.
In the case of GM-CSF, in the data set with CUS-exposed mice [1] (setting [6]), the sucrose preference result is on record as “completely reversed the suppressive effects of CUS on sucrose preference”. The social exploration time entry in the data set with CUS-exposed mice [2] is on record as “induced an elevation in the social exploration time”. In the data set on CUS-exposed mice [3] (setting [6]), the floating time entry is on record as “showed no difference from non-stressed controls”. In the data set with DG microglia (setting [7]), the DG microglia number entry is given as “significantly greater number of microglia as compared with the control CUS-exposed mice”.
For “IL-1β: microglia-stimulating cytokine interleukin-1β, given intra-hippocampally”, in the data set with DG microglia (acute intra-hippocampal administration in WT mice), the “microglia number and morphology” value was “mimicked the effects of short-term US on microglia number and morphology”.

B1: M-CSF: Macrophage colony-stimulating factor, homodimer glycoprotein; microglia activator (protein, UniProt P09603 33-554, looked up)
Macrophage colony-stimulating …: EEVSEYCSHMIGSGHLQSLQRLIDSQMETSCQITFEFVDQEQLKDPVCYLKKAFLLVQDIMEDTMRFRDNTPNAIAIVQLQELSLRLKSCFTKDYEEHDKACVRTFYETPLQLLEKVKNVFNETKNLLDKDWNIFSKNCNNSFAECSSQDVVTKPDCNCLYPKAIPSSDPASVSPHQPLAPSMAPVAGLTWEDSEGTEGSSLLPGEQPLHTVDPGSAKQRPPRSTCQSFEPPETPVVKDSTIGGSPQPRPSVGAFNPGMEDILDSAMGTNWVPEEASGEASEIPVPQGTELSPSRPGGGSMQTEPARPSNFLSASSPLPASAKGQQPADVTGTALPRVGPVRPTGQDWNHTPQKTDHPSALLRDPPEPGSPRISSLRPQGLSNPSTLSAQPQLSRSHSSGSVLPLGELEGRRSTRDRRSPAEPEGGPASEGAARPLPRFNSVPLTDTGHERQSEGSFSPQLQESVFHLLVPSVILVLLAVGGLLFYRWRRRSHQEPQRADSPLEQPEGSPLTQDDRQVELPV
With B1, the sucrose preference entry in the data set with CUS-exposed mice [1] (setting [8]) is recorded as “completely reversed the suppressive effects of CUS on sucrose preference”. For the same molecule, in the data set on CUS-exposed mice [2] (setting [8]), the social exploration result is given as “completely reversed the suppressive effects of CUS”. Further, in the data set with CUS-exposed mice [3] (setting [8]), the floating time result is on record as “reversed” and the “latency to first float” value is “did not reach statistical significance”. Further, in the data set on CUS-exposed mice [4] (CUS-exposed mice), the depressive-like behavioral symptoms result is on record as “completely reversed the depressive symptoms after a few days of treatment”. Moreover, the depressive symptoms entry in the data set on CUS-exposed mice [4] (non-stressed mice) is “did not cause depressive symptoms in non-stressed mice”. Moreover, in the data set with DG microglia (control and CUS-exposed mice, M-CSF 100 μg/kg i.p. daily for 5 days), the DG microglia number entry was “overall increase in DG microglia number, completely normalizing microglia number in CUS-exposed mice”. Further, the “generation of new (BrdU-labeled) DG cells that are not microglia” value in the data set on DG cells (CUS-exposed mice) is “marked increase in the generation of new (BrdU-labeled) DG cells that are not microglia”. Further, the “microglia proliferation (GFP microglia co-labeled for BrdU)” value in the data set on DG cells is “overall increase in microglia proliferation”.

Values taken from patent publication US10626178B2, “Treatment of mood and stress related disorders” (priority 2013, dated 2020).
